Assay results taken from ChEMBL document CHEMBL1142474, “Structure-activity relationship studies of imidazo[1,2-c]pyrimidine derivatives as potent and orally effective Syk family kinases inhibitors” (Bioorg Med Chem, 2008).
Converted amounts (≈) assume the structure as drawn. The source made the active and inactive calls. The rule behind the calls is not given here.

Legend:
[1] = molecular target: Tyrosine-protein kinase SYK (Homo sapiens, UniProt P43405)
Description: Inhibition of human Syk expressed in Sf9 cells

[2] = molecular target: T1, Tyrosine-protein kinase ZAP-70 (Homo sapiens, UniProt P43403); test: Inhibition of human ZAP70 expressed in Sf9 cells
T1 sequence (P43403 whole entry): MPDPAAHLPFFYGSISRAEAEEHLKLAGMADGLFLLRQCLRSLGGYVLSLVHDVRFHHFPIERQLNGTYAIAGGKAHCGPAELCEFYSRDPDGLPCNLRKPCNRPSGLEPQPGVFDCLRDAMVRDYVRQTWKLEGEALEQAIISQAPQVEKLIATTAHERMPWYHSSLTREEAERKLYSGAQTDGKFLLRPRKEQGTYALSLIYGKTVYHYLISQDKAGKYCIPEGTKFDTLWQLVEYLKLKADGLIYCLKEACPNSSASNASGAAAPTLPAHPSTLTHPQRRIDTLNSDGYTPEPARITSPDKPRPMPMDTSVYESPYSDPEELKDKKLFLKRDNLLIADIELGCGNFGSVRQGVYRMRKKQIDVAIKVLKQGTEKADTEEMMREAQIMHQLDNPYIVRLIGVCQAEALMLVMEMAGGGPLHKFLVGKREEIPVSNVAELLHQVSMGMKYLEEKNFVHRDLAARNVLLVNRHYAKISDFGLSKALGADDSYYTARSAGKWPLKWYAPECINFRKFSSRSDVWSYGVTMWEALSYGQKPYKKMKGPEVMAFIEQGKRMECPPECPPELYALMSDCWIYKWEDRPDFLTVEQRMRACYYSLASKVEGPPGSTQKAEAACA

[3] = test system: Blood; test: Inhibition of IL2 production in PHA-stimulated human whole blood after 24 hrs by ELISA
[4] = test system: PBMC; test: Inhibition of IL2 production in PHA-stimulated human PBMC after 24 hrs by ELISA
[5] = Apparent permeability across human Caco-2 cells; format: ADME, cell-based
[6] = test system: Mus musculus; test: Suppression of concanavalin A-induced IL2 production in po dosed ICR mouse administered 1 hr before concanavalin A challenge relative to control
[7] = test system: Mus musculus; test: Plasma concentration in mouse at 100 mg/kg, po; format: ADME, organism-based; set-up: dose 100 mg/kg, route oral; details: in vivo
[8] = test system: Mus musculus; test: Plasma concentration in mouse at 30 mg/kg, po; format: ADME, organism-based; set-up: dose 30 mg/kg, route oral; details: in vivo
[9] = test system: Mus musculus; test: Plasma concentration in mouse at 10 mg/kg, po; format: ADME, organism-based; set-up: dose 10 mg/kg, route oral; details: in vivo
[10] = test system: Mus musculus; test: Suppression of anti-dinitrophenyl-coupled IgE-induced passive cutaneous anaphylaxis reaction in po dosed ICR mouse administered 1 hr before antigen challenge relative to control; format: functional, organism-based
[11] = test system: Mus musculus; test: Plasma concentration in mouse at 3 mg/kg, po; format: ADME, organism-based; set-up: dose 3 mg/kg, route oral; details: in vivo
[12] = Solubility in water; format: physicochemical

Structure (SMILES) | IC50 [3] [nM] | IC50 [4] [nM] | Papp [5] [×10⁻⁶ cm/s] | Activity [6] | further results
COc1ccccc1Nc1nc(N[C@H]2CCCC[C@H]2N)n2ccnc2c1C(N)=O (relative stereo) |  |  |  |  | IC50 [1]: > 10000 nM; IC50 [2]: > 10000 nM
COc1cc(Nc2nc(N[C@H]3CCCC[C@H]3N)n3cc(-c4ccccc4)nc3c2C(N)=O)cc(OC)c1 | 2000 | 200 | 0.43 |  | 
COc1cc(Nc2nc(N[C@H]3CCCC[C@H]3N)n3cnnc3c2C(N)=O)cc(OC)c1 | 440 | 46 | 0.01 | inactive | Cp [7]: 45.2 ng/mL; Cp [8]: 26.5 ng/mL; Cp [9]: 28.4 ng/mL
NC(=O)c1c(Nc2cc(F)cc(F)c2)nc(N[C@H]2CCCC[C@H]2N)n2ccnc12 (relative stereo) | 3000 | 150 |  |  | 
CN[C@@H]1C[C@H]2O[C@@](C)([C@@H]1OC)n1c3ccccc3c3c4c(c5c6ccccc6n2c5c31)C(=O)NC4 [STAUROSPORINE] |  | 16 |  |  | 
COc1cc(Nc2nc(N[C@H]3CCCC[C@H]3N)n3ccnc3c2C(N)=O)cc(OC)c1 (relative stereo) | 280 | 58 | 3.33 | Dose-dependent effect | Cp [7]: 4031 ng/mL; Cp [8]: 770 ng/mL; Activity [10]: Dose-dependent effect; Cp [9]: 191 ng/mL; Cp [11]: 40 ng/mL; solubility [12]: 930 µg/mL (≈ 2190 µM)
COc1cc(Nc2nc(N[C@H]3CCCC[C@H]3N)n3ncnc3c2C(N)=O)cc(OC)c1 | 480 | 76 | 0.33 | inactive | 
Cc1cc(C)cc(Nc2nc(N[C@H]3CCCC[C@H]3N)n3ccnc3c2C(N)=O)c1 (relative stereo) | 1000 | 200 |  |  | 
